In ChEMBL document CHEMBL1201862, “PubChem BioAssay data set” (2004) one finds AC50, EC50 and IC50 data, which are given here for 6 molecules.

Calls of active or inactive are those of the source.

Assay [1] has as its system A-375. The assay can be described thus: MITF: Counter assay: A375 proliferation Measured in Cell-Based System Using Plate Reader - 2084-03_Inhibitor_Dose_DryPowder_Activity. [Related pubchem assays (depositor defined):AID488944]. Particulars: Homo sapiens. The format is functional.
In assay [2] the target is Peroxisome proliferator-activated receptor gamma/Nuclear receptor coactivator 1 (Homo sapiens, UniProt P37231). The format is functional.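 Also: agonist potency as compounds enhance coactivator SRC-1 recruitment to PPARgamma.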
Assay [3] deals with Peroxisome proliferator-activated receptor gamma/Nuclear receptor coactivator 2 (Homo sapiens, UniProt P37231). The format is functional.
Peroxisome proliferator-activated receptor gamma/Nuclear receptor coactivator 2, sequence (P37231 whole entry): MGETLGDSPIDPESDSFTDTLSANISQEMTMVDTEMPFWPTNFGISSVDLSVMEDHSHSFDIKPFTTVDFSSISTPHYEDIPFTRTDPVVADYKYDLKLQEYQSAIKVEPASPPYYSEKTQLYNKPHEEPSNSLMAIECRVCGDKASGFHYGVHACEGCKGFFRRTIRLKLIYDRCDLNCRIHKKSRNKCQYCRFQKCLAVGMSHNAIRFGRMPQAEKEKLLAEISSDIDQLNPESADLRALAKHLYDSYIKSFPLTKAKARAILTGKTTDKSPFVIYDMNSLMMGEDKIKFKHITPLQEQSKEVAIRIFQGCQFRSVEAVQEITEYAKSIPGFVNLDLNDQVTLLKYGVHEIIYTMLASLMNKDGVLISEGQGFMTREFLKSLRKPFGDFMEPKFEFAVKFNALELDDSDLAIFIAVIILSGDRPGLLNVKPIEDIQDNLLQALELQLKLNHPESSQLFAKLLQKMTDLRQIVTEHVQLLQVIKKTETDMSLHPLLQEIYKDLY
Peroxisome proliferator-activated receptor gamma/Nuclear receptor coactivator 2, sequence (Q15596 whole entry, further chain): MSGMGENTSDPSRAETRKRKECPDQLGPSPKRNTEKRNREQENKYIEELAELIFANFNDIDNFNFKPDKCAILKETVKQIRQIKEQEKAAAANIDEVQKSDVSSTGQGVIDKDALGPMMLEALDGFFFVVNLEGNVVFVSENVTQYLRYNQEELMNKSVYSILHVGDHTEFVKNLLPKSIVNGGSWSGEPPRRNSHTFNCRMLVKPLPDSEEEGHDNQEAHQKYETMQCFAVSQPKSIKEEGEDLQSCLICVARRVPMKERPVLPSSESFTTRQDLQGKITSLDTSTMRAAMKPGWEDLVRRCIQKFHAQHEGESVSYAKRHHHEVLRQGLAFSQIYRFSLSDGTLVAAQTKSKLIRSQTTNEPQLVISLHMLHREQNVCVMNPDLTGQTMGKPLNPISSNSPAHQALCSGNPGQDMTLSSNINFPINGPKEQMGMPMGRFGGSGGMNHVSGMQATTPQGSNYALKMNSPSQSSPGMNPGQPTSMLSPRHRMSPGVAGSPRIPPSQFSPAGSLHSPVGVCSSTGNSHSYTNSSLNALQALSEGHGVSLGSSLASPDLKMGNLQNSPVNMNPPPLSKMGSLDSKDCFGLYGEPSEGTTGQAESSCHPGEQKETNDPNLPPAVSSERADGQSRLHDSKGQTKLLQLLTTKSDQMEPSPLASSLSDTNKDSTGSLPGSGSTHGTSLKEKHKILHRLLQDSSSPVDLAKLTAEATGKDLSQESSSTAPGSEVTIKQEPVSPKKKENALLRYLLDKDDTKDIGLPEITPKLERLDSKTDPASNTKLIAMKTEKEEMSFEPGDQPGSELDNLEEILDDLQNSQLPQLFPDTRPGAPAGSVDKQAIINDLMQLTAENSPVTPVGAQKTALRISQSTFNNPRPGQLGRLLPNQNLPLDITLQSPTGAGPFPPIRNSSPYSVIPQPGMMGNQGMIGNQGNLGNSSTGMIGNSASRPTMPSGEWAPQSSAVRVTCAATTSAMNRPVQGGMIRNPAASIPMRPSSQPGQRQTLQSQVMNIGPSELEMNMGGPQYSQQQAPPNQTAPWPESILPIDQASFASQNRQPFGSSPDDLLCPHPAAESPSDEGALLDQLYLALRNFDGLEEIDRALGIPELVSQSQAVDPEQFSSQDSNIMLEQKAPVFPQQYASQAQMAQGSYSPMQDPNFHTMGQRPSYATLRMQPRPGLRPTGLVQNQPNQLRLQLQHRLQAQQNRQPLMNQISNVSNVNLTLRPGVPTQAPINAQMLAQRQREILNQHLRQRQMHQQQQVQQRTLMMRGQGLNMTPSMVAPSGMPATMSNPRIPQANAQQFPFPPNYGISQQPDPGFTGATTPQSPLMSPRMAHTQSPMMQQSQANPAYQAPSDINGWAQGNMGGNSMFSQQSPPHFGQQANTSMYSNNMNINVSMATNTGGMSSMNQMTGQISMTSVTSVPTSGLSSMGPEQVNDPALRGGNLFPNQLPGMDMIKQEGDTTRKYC
In assay [4] the target is Peroxisome proliferator-activated receptor gamma/Nuclear receptor coactivator 3 (Homo sapiens, UniProt P37231). The format is functional.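 Also: agonist potency for raising coactivator recruitment to the receptor.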
Peroxisome proliferator-activated receptor gamma/Nuclear receptor coactivator 3, sequence (P37231 whole entry): as the sequence (P37231 whole entry) above
Peroxisome proliferator-activated receptor gamma/Nuclear receptor coactivator 3, sequence (Q9Y6Q9 whole entry, further chain): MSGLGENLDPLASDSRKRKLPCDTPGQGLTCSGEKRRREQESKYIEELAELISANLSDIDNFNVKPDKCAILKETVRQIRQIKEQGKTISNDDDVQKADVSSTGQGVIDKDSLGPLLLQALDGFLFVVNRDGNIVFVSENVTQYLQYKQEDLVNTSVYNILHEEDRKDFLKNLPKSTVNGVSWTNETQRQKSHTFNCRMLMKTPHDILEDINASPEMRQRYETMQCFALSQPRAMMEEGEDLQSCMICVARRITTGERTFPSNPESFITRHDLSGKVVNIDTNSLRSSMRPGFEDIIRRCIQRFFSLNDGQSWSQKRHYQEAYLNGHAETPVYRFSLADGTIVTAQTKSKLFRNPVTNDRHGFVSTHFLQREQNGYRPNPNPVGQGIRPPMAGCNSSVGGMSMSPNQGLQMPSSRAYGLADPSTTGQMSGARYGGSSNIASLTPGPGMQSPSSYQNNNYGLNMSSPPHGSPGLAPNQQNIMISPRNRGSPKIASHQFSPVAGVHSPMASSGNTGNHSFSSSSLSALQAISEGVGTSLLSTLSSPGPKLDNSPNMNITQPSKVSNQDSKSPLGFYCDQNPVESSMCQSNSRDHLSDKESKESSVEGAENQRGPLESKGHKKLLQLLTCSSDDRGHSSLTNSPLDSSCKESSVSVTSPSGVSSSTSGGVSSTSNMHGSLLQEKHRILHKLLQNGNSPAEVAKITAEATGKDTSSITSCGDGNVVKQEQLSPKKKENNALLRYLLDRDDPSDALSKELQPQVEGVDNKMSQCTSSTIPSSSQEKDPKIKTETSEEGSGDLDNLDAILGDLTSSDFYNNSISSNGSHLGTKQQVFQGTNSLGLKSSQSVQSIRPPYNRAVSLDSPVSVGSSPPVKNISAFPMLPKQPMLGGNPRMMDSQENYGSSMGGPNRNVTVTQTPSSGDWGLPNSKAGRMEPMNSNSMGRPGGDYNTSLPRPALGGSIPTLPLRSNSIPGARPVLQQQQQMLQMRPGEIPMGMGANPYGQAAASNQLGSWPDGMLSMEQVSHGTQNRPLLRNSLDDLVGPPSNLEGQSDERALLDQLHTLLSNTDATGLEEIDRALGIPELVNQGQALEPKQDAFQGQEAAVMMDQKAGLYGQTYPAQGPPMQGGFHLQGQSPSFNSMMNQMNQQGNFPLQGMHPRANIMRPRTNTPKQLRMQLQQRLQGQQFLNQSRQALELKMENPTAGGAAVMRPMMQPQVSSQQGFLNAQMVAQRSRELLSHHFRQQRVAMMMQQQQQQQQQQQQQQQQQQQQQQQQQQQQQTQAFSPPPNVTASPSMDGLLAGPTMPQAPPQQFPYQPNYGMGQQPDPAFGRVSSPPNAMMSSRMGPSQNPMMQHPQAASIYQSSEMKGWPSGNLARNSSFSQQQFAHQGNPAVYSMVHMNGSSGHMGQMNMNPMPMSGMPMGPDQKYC
Assay [5] relates to A-375. The assay can be described thus: proliferation inhibition in MITF-low A375 cells – cell-based, cherry-pick samples, set 2, counter-screen for MITF modulator project, dose response (AID 540335). The format is functional. Conditions: Homo sapiens. (In general: Counterscreens check selectivity or assay interference.)
Assay [6] addresses Voltage-gated inwardly rectifying potassium channel KCNH2 (Homo sapiens, UniProt Q12809). Conditions: Potency.
A short description of assay [7]: Luminescence Cell-Based Dose Response HTS to Identify Activators of Luciferase Translation or Activity in H4 […] Cells. [Related pubchem assays: 1829 (Project Summary), 1814 (Primary HTS)]. The format is functional.
Another assay relates to H4. The assay can be described thus: Luminescence Cell-Based Dose Response HTS to Identify Activators of 5'UTR Stem-Loop Driven Prion Protein mRNA Translation in H4 Neuroglioblastoma Cells. [Related pubchem assays: 1829 (Project Summary), 1814 (Primary HTS)]. The format is functional. Particulars: Homo sapiens.
The next assay concerns HeLa. The experiment in a line: ATP-based viability loss in HeLa cells – cell-based, CellTiter-Glo luminescence, cherry-pick samples, cytotoxicity control for MITF activator project, dose response (AID 540259). Particulars: Homo sapiens. The format is functional.
A further assay concerns Jurkat. The assay can be described thus: SAR Analysis of small molecule inhibitors of T-cell specific antigen receptor-induced NF-kB activation in a Jurkat cell line using a luminescence assay - Set 2. [Related pubchem assays (depositor defined):AID435003, AID435012, AID465]. Particulars: Homo sapiens. The format is functional, cell-based.
The subject of assay [8] is HEK293. The assay can be described thus: SAR Analysis of small molecule inhibitors of T-cell specific antigen receptor-induced NF-kB activation in a HEK-293T cell line using a luminescence assay - Set 2. [Related pubchem assays (depositor defined):AID435003, AID435012, AID489026]. The format is functional, cell-based. Particulars: Homo sapiens.
Assay [9] has as its system HEK293. The experiment in a line: HEK293T cell viability loss, resazurin readout – resazurin fluorescence, cytotoxicity control for NF-kB activator project, SAR follow-up (AID 493251). Conditions: Homo sapiens. The format is functional, cell-based.
The next assay concerns the target Phospholipase D2 (Homo sapiens, UniProt O14939). The assay can be described thus: cellular phospholipase D2 inhibition IC50 – cell-based, dose response (AID 602147).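 Also: cellular assay in HEK293 cells overexpressing GFP-tagged PLD2.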 The format is functional.
For another assay, the target named is Phospholipase D1 (Homo sapiens, UniProt Q13393). The assay can be described thus: cellular phospholipase D1 inhibition IC50 – cell-based, dose response (AID 602151).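 Also: cellular PLD1 assay in Calu-1 cells stimulated with PMA.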 The format is functional.
In assay [10] the target is Intestinal-type alkaline phosphatase (Homo sapiens, UniProt P09923). The assay can be described thus: activation of human intestinal alkaline phosphatase – biochemical, dose response (AID 488873). The format is functional.
Assay [11] concerns the target T1, Dual specificity protein phosphatase 6 (Rattus norvegicus, UniProt Q64346).
T1 sequence (Q64346 whole entry): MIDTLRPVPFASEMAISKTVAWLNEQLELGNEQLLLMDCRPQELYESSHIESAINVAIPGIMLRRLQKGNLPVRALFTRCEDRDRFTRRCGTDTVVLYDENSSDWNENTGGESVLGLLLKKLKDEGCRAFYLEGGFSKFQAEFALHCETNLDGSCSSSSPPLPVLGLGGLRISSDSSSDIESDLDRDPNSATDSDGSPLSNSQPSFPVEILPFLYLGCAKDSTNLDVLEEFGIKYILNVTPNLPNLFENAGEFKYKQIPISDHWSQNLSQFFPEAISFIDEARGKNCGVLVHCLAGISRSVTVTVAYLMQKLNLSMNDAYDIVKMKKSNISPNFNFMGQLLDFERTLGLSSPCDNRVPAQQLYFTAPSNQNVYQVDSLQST
The experiment in a line: inhibition of rat DUSP6 enzyme activity – biochemical, in vitro, primary screen (AID 425).

Assay [12] addresses T2, Alkaline phosphatase, tissue-nonspecific isozyme (Homo sapiens, UniProt P05186).
T2 sequence (P05186 whole entry): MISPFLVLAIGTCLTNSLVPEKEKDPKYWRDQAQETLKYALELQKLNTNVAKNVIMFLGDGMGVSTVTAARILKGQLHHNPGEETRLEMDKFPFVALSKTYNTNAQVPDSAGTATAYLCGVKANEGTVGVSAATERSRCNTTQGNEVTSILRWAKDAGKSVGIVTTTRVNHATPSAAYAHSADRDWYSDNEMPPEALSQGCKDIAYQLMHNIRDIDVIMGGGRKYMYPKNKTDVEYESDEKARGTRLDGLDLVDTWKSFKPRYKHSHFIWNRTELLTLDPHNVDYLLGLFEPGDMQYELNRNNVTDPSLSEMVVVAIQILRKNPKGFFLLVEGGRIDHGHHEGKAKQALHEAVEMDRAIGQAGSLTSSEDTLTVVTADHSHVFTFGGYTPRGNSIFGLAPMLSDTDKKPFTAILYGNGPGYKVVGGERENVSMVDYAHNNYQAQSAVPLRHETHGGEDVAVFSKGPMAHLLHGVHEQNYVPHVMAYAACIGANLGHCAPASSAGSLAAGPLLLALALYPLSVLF
The assay can be described thus: activation of tissue-nonspecific alkaline phosphatase – biochemical, TNAP isozyme, mouse IAP uHTS hits, selectivity assay for mouse IAP activator project, dose response (AID 488880). The format is functional.

The target in assay [13] is Beta-adrenergic receptor kinase 1 (Homo sapiens, UniProt P25098). The assay can be described thus: aptamer displacement from bead-bound GRK2 – biochemical, cherry pick 1, bead flow cytometry, dose response (AID 504500). Background: In flow cytometry, cells or beads pass a laser one at a time.
For assay [14], the target named is Intestinal-type alkaline phosphatase (Mus musculus, UniProt P24822). The experiment in a line: mouse intestinal alkaline phosphatase activators, dose response, biochemical, luminescence, uHTS hits (AID 488783). The format is functional.

Voltage-gated inwardly rectifying potassium channel KCNH2, sequence (Q12809 whole entry): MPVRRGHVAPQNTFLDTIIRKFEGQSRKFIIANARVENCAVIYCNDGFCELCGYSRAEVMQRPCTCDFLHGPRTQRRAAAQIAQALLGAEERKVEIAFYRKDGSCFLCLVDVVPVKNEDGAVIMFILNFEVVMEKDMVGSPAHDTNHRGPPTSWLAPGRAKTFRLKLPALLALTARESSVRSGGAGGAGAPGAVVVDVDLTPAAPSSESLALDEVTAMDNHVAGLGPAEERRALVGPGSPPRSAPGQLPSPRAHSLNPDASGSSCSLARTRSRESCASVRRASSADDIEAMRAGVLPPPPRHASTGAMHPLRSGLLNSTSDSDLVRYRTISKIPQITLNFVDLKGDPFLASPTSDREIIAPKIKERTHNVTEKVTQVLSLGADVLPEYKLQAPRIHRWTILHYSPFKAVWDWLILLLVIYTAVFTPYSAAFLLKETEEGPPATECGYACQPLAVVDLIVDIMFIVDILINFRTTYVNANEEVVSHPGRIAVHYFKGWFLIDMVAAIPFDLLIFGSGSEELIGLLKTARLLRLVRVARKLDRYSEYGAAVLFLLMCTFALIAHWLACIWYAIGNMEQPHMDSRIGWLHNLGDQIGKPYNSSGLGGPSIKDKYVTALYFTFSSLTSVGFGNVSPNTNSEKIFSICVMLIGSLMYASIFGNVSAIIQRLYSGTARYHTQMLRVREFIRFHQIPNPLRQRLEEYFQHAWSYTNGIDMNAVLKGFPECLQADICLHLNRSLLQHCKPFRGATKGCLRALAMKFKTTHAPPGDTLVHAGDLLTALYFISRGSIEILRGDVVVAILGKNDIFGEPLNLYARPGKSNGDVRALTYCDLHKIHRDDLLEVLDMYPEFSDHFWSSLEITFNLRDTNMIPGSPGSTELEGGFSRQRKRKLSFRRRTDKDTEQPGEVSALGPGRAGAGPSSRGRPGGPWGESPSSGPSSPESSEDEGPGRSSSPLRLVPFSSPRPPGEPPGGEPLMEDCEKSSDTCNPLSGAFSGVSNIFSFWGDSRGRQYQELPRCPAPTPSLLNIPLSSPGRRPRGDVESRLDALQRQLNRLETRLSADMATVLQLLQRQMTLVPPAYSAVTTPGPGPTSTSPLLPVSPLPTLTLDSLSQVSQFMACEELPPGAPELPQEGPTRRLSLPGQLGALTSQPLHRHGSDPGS

On to `CC(C)OC(=O)CSc1nc2cc3c(cc2cc1C#N)OCO3`, for which the AC50 in the assay on A-375 [1] and in the assay on A-375 [5] was > 35 µM (active) throughout. The EC50 (in general, the concentration needed to bring the measured effect to its halfway point) is on record as 11.9 µM (not active) in assay [2], 10.2 µM (not active) in assay [3] and 18.3 µM (not active) in assay [4].

Consider `CN(C)CCC(c1ccccc1)c1ccccn1` (centres undefined), for which, in assay [6], the AC50 (usually the concentration giving half of the maximal activity seen) is 35.5 µM (inconclusive).

On to `CCCc1cc2c(=O)c(-c3ccccn3)coc2cc1OC`, for which the EC50 in assay [7] is 0.182 µM (active); in the assay on H4 it was > 120 µM (not active). The AC50 with HeLa was 73.5 µM (active).

As to `Cc1ccc(C(NC(=O)C2CCCCC2)c2ccc3cccnc3c2O)cc1` (centres undefined), the IC50 (as a rule, the midpoint of a concentration-inhibition curve) in the assay on Jurkat is 2.62 µM (active); in the assay on HEK293 [8], 4.93 µM (active); in the assay with HEK293 [9], 21 µM (inactive).

Turning to `CN(CCN1CCC2(CC1)C(=O)NCN2c1ccccc1)C(=O)c1ccc2ccccc2c1`, the values for the IC50 at Phospholipase D2 and at Phospholipase D1 were 20 µM (active) and 20 µM (inactive), respectively.

As to `CCOC(=O)C(C)Sc1nc2c(c(=O)[nH]c(=O)n2C)n1C/C=C(/C)Cl` (centres undefined), the EC50 was 74.2 µM (active) in assay [10], 66.9 µM (active) in assay [12], 22.1 µM (inactive) in [13] and 69.8 µM (active) in assay [14]. Moreover, in assay [11], the half-maximal inhibitory concentration (IC50) is > 10 µM (not active).
